In ChEMBL document CHEMBL1201862, “PubChem BioAssay data set” (2004):
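Following 48 hours of exposure in 96-well plates, responses at five concentrations were used to interpolate endpoints linearly. GI50 is the concentration that inhibits growth by half.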 Calls of active or inactive are those of the source. Rule as the data show it: active = GI50 up to about 1.1 µM and inactive = higher.

Experiments:
Assay in all cases: NCI anticancer screen, dose series, 48 h
786-0 = test system: 786-0
A498 = test system: A498
A549 = test system: A549
ACHN = test system: ACHN
BT-549 = test system: BT-549
CAKI-1 = test system: CAKI-1
CCRF-CEM = test system: CCRF-CEM
COLO 205 = test system: COLO 205
DU-145 = test system: DU-145
EKVX = test system: EKVX
HCC 2998 = test system: HCC 2998
HCT-116 = test system: HCT-116
HCT-15 = test system: HCT-15
HOP-62 = test system: HOP-62
HOP-92 = test system: HOP-92
HT-29 = test system: HT-29
Hs-578T = test system: Hs-578T
IGROV-1 = test system: IGROV-1
K562 = test system: K562
KM12 = test system: KM12
LOX IMVI = test system: LOX IMVI
M14 = test system: M14
MCF7 = test system: MCF7
MDA-MB-231 = test system: MDA-MB-231
MDA-MB-435 = test system: MDA-MB-435
MDA-N = test system: MDA-N
MOLT-4 = test system: MOLT-4
NCI-H226 = test system: NCI-H226
NCI-H23 = test system: NCI-H23
NCI-H460 = test system: NCI-H460
NCI-H522 = test system: NCI-H522
NCI/ADR-RES = test system: NCI/ADR-RES
OVCAR-3 = test system: OVCAR-3
OVCAR-4 = test system: OVCAR-4
OVCAR-5 = test system: OVCAR-5
OVCAR-8 = test system: OVCAR-8
PC-3 = test system: PC-3
RPMI-8226 = test system: RPMI-8226
RXF 393 = test system: RXF 393
SF-268 = test system: SF-268
SF-295 = test system: SF-295
SF-539 = test system: SF-539
SK-MEL-28 = test system: SK-MEL-28
SK-MEL-2 = test system: SK-MEL-2
SK-MEL-5 = test system: SK-MEL-5
SK-OV-3 = test system: SK-OV-3
SN12C = test system: SN12C
SNB-19 = test system: SNB-19
SNB-75 = test system: SNB-75
SR = test system: SR
SW-620 = test system: SW-620
T47D = test system: T47D
TK-10 = test system: TK-10
U-251 = test system: U-251
UACC-257 = test system: UACC-257
UACC-62 = test system: UACC-62
UO-31 = test system: UO-31

O=C(/C=C/c1ccc(O)c(O)c1)OCC(OC(=O)/C=C/c1ccc(O)c(O)c1)C(=O)O (configuration not stated)
GI50 (786-0): > 100 µM (inactive)
GI50 (A498): > 100 µM (inactive)
GI50 (A549): > 100 µM (inactive)
GI50 (ACHN): > 100 µM (inactive)
GI50 (BT-549): > 100 µM (inactive)
GI50 (CAKI-1): > 100 µM (inactive)
GI50 (CCRF-CEM): 48 µM (inactive)
GI50 (COLO 205): > 100 µM (inactive)
GI50 (DU-145): > 100 µM (inactive)
GI50 (EKVX): > 100 µM (inactive)
GI50 (HCC 2998): > 100 µM (inactive)
GI50 (HCT-116): 81.7 µM (inactive)
GI50 (HCT-15): 47.6 µM
GI50 (HOP-62): 70.5 µM (inactive)
GI50 (HOP-92): > 100 µM (inactive)
GI50 (HT-29): > 100 µM (inactive)
GI50 (Hs-578T): > 100 µM (inactive)
GI50 (IGROV-1): 80.9 µM (inactive)
GI50 (K562): > 100 µM (inactive)
GI50 (KM12): > 100 µM (inactive)
GI50 (LOX IMVI): 92.5 µM (inactive)
GI50 (M14): > 100 µM (inactive)
GI50 (MCF7): > 100 µM (inactive)
GI50 (MDA-MB-231): > 100 µM (inactive)
GI50 (MDA-MB-435): > 100 µM (inactive)
GI50 (MDA-N): > 100 µM (inactive)
GI50 (MOLT-4): 63.4 µM (inactive)
GI50 (NCI-H226): > 100 µM (inactive)
GI50 (NCI-H23): > 100 µM (inactive)
GI50 (NCI-H460): 86.9 µM (inactive)
GI50 (NCI-H522): 84.7 µM (inactive)
GI50 (NCI/ADR-RES): > 100 µM (inactive)
GI50 (OVCAR-3): 55.2 µM (inactive)
GI50 (OVCAR-4): 90.2 µM (inactive)
GI50 (OVCAR-5): > 100 µM (inactive)
GI50 (OVCAR-8): > 100 µM (inactive)
GI50 (PC-3): > 100 µM (inactive)
GI50 (RPMI-8226): > 100 µM (inactive)
GI50 (RXF 393): > 100 µM (inactive)
GI50 (SF-268): > 100 µM (inactive)
GI50 (SF-295): > 100 µM (inactive)
GI50 (SF-539): > 100 µM (inactive)
GI50 (SK-MEL-28): > 100 µM (inactive)
GI50 (SK-MEL-2): > 100 µM (inactive)
GI50 (SK-MEL-5): > 100 µM (inactive)
GI50 (SK-OV-3): > 100 µM (inactive)
GI50 (SN12C): > 100 µM (inactive)
GI50 (SNB-19): > 100 µM (inactive)
GI50 (SNB-75): 63 µM (inactive)
GI50 (SR): 21.3 µM (inactive)
GI50 (SW-620): 50.8 µM (inactive)
GI50 (T47D): > 100 µM (inactive)
GI50 (TK-10): > 100 µM (inactive)
GI50 (U-251): 63.7 µM (inactive)
GI50 (UACC-257): > 100 µM (inactive)
GI50 (UACC-62): > 100 µM (inactive)
GI50 (UO-31): 85.7 µM (inactive)
